Series [1] addresses Epidermal growth factor receptor (Homo sapiens, UniProt P00533). Put plainly: Inhibition of Her1 (unknown origin).
Series [2] deals with Voltage-gated inwardly rectifying potassium channel KCNH2 (Homo sapiens, UniProt Q12809). Nature of the series: Inhibition of human ERG by dofetilide binding assay.
In series [3] the target is Tyrosine-protein kinase JAK1 (Homo sapiens, UniProt P23458). Nature of the series: Inhibition of Jak1 (unknown origin).
Series [4] concerns Liver microsome. Put plainly: Drug metabolism in human liver microsomes assessed as 3-(4-amino-7-((cis)-3-(azetidin-1-ylmethyl)cyclobutyl)-7H-pyrrolo[2,3-d]pyrimidin-5-yl)phenol formation by LC-MS/MS analysis. The class given is ADME.
For series [5], the target named is Phosphatidylinositol 4,5-bisphosphate 3-kinase catalytic subunit alpha isoform (Homo sapiens, UniProt P42336). Put plainly: Inhibition of PI3K-alpha (unknown origin).
Series [6] deals with Phosphatidylinositol 4,5-bisphosphate 3-kinase catalytic subunit beta isoform (Homo sapiens, UniProt P42338). Nature of the series: Inhibition of PI3K-beta (unknown origin).
Series [7] deals with Insulin-like growth factor 1 receptor (Homo sapiens, UniProt P08069). Put plainly: Inhibition of IGF-1 receptor (unknown origin).
Series [8] has as its target Cytochrome P450 2C9 (Homo sapiens, UniProt P11712). Nature of the series: Effect on human CYP2C9 at 10 uM. The class given is ADME.
For series [9], the target named is Tyrosine-protein kinase Lck (Homo sapiens, UniProt P06239). Nature of the series: Inhibition of Lck (unknown origin).
A short description of series [10]: Solubility of compound in water. The class given is physicochemical. Conditions: buffer; call rule not given here.
Series [11] addresses Vascular endothelial growth factor receptor 2 (Homo sapiens, UniProt P35968). Nature of the series: Inhibition of KDR (unknown origin).
Series [12] concerns the target T1, Ephrin type-B receptor 4 (Homo sapiens, UniProt P54760).
T1 sequence (P54760 whole entry): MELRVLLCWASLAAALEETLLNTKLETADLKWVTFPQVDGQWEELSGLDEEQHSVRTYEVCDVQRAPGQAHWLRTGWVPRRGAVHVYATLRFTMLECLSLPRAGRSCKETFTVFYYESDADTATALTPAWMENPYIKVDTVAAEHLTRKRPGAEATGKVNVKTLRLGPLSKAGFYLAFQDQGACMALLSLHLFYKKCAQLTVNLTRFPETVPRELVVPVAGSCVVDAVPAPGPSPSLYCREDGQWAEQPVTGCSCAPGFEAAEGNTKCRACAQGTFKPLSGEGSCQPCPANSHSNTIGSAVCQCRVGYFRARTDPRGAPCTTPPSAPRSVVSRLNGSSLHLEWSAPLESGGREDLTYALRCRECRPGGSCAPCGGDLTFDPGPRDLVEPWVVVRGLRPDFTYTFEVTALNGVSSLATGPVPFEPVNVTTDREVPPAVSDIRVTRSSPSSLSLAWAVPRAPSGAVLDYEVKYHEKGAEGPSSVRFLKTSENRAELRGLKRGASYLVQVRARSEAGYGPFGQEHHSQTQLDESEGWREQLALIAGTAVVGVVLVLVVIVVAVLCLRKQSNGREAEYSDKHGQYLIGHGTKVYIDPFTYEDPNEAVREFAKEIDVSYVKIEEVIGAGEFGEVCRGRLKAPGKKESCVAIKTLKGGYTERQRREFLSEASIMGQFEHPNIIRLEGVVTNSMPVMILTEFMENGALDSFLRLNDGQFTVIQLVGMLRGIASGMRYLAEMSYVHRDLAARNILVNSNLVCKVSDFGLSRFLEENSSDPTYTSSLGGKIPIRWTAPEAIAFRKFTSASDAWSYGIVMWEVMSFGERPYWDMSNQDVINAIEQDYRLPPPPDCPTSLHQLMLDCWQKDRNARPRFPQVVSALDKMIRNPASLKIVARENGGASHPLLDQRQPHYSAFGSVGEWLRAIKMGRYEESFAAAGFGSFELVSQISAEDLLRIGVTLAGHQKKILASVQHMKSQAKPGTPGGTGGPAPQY
Put plainly: Inhibition of EphB4 receptor (unknown origin).

Series [13] addresses Proto-oncogene tyrosine-protein kinase receptor Ret (Homo sapiens, UniProt P07949). Put plainly: Inhibition of Ret (unknown origin).
Series [14] is described as follows: Permeability of compound at >= pH 7 by PAMPA assay. It is filed as ADME.
For series [15], the target named is Cytochrome P450 3A4 (Homo sapiens, UniProt P08684). Put plainly: Effect on human CYP3A4 at 10 uM. It is filed as ADME.
In series [16] the target is Insulin receptor (Homo sapiens, UniProt P06213). Nature of the series: Inhibition of Ins receptor (unknown origin).
Series [17] deals with Cytochrome P450 2D6 (Homo sapiens, UniProt P10635). Nature of the series: Effect on human CYP2D6 at 10 uM. It is filed as ADME.
The test system of series [18] is Liver microsome. Nature of the series: Drug level in human liver microsomes treated with NVP-AEW541 by LC-MS/MS analysis. The class given is ADME.

Molecules are shown by their SMILES.

Chain of Phosphatidylinositol 4,5-bisphosphate 3-kinase catalytic subunit beta isoform (P42338 whole entry, canonical isoform): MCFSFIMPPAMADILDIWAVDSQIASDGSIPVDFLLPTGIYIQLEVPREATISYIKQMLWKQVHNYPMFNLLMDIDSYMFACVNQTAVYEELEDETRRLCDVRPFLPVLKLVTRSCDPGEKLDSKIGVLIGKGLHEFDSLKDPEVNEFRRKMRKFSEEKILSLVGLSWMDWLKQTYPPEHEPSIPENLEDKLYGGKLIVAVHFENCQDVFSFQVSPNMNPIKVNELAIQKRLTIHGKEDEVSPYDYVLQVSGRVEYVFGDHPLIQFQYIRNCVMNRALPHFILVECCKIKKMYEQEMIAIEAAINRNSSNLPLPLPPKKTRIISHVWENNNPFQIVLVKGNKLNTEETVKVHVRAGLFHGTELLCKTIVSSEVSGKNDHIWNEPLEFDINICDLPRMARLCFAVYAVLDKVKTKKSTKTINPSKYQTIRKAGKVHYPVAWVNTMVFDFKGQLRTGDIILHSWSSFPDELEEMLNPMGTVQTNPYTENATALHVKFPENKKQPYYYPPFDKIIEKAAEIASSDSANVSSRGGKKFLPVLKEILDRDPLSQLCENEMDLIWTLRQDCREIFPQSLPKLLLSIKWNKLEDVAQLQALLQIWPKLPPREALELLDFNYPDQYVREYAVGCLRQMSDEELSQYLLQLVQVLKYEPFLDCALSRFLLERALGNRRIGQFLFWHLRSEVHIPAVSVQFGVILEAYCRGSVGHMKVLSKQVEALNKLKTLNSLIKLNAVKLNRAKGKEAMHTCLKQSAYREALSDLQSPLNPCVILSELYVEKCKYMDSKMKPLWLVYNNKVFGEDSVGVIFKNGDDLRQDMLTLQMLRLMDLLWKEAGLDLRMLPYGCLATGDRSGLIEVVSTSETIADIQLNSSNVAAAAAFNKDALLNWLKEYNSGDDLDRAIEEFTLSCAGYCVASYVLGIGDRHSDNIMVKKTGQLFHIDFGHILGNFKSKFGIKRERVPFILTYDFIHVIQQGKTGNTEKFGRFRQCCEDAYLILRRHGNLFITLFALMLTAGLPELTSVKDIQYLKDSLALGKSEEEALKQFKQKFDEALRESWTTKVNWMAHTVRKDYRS
Chain of Insulin-like growth factor 1 receptor (P08069 31-736 limits assumed): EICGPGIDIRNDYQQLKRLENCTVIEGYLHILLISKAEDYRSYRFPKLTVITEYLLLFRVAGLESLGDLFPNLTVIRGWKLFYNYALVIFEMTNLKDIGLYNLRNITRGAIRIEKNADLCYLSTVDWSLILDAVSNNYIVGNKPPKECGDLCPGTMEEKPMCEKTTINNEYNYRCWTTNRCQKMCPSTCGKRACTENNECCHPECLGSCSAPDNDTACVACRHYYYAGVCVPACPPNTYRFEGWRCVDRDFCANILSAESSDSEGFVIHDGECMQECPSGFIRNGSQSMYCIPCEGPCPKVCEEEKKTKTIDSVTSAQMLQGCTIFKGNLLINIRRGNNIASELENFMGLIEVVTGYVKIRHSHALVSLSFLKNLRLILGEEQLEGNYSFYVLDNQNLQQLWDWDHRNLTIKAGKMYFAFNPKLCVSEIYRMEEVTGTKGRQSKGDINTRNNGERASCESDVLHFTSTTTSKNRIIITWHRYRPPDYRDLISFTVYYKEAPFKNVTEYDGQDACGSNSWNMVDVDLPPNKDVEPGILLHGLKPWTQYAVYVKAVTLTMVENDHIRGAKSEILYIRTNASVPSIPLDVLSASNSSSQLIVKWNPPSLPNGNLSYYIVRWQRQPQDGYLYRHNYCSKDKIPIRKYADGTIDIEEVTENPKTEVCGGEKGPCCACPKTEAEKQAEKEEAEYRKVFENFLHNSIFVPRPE
Chain of Insulin-like growth factor 1 receptor (P08069 741-1367 limits assumed): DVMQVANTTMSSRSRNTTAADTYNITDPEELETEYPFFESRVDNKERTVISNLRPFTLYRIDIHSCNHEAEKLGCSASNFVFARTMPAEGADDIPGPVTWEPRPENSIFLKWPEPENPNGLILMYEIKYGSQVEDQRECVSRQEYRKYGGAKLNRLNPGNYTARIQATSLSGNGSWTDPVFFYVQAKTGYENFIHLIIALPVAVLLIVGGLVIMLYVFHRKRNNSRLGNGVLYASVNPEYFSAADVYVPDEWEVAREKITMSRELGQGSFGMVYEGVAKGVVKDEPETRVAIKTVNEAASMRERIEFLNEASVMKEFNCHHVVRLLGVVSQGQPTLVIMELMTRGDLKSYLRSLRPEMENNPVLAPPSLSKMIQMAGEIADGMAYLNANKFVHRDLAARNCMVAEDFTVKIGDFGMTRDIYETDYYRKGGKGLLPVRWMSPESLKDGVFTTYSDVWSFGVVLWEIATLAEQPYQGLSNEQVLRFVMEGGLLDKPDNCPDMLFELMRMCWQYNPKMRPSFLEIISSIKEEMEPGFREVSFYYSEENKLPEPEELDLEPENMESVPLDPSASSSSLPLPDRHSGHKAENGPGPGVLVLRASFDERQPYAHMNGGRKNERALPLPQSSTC
Chain of Tyrosine-protein kinase JAK1 (P23458 whole entry): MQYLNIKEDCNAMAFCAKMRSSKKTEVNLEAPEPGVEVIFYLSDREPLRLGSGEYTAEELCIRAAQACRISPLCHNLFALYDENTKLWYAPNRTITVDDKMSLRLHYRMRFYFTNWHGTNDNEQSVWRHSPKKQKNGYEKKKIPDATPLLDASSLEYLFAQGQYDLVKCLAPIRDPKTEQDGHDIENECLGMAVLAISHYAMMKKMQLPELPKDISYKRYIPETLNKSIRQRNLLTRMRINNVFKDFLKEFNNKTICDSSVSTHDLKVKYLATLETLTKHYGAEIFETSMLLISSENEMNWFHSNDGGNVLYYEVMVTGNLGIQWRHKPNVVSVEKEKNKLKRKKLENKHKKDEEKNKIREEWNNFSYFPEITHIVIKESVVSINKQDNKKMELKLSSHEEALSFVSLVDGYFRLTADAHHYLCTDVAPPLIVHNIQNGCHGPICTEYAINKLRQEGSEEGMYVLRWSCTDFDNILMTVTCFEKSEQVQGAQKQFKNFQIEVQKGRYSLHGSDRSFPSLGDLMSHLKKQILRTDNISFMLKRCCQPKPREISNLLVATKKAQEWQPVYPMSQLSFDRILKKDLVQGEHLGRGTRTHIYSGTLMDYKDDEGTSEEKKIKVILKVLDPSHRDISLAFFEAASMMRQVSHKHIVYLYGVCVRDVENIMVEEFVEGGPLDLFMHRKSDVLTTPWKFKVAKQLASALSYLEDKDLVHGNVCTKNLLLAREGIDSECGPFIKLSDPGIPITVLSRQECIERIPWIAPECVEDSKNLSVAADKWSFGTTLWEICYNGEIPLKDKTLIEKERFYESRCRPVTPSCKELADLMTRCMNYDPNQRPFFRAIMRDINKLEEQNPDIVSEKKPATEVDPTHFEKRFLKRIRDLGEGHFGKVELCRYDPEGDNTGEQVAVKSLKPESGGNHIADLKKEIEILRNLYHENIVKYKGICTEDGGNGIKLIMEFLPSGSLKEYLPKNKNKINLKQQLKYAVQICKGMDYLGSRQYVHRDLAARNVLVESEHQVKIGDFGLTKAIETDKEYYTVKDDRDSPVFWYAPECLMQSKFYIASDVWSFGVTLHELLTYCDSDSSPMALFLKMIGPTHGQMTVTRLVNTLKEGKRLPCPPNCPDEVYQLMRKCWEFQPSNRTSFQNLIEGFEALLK
Chain of Phosphatidylinositol 4,5-bisphosphate 3-kinase catalytic subunit alpha isoform (P42336 whole entry, canonical isoform): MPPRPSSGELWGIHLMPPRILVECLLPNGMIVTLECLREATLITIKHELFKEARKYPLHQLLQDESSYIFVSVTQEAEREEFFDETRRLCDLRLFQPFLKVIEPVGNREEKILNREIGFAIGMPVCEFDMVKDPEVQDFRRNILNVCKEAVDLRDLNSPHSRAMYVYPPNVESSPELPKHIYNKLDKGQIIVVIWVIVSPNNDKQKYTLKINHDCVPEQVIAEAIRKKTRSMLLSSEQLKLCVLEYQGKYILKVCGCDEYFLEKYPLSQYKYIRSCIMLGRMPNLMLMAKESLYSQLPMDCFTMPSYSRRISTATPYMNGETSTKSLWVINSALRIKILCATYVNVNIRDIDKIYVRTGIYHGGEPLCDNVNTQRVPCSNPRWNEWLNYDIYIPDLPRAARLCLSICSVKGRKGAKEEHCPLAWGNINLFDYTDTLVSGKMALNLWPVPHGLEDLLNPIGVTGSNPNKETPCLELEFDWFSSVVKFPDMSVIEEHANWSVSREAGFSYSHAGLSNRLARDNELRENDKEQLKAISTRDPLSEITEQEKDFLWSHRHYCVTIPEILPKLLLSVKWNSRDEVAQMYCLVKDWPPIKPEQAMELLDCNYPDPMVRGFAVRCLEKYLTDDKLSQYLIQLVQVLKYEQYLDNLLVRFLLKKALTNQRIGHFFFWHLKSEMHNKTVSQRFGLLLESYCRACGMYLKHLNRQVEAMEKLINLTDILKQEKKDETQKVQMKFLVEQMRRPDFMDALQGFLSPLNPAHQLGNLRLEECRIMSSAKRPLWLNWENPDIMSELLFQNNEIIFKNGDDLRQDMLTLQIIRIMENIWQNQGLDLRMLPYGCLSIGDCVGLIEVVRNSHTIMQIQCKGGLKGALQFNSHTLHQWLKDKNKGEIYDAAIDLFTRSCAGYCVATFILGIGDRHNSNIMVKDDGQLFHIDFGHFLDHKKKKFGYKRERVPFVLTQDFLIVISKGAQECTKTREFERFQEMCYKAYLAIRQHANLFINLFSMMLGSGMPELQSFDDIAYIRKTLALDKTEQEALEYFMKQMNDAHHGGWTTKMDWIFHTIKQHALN

Regarding `Nc1ncnc2c1c(-c1cccc(OCc3ccccc3)c1)cn2[C@H]1C[C@@H](CN2CCC2)C1`, the IC50 is over 10 µM in series [1]; 130 nM in series [2]; over 10 µM in series [3]; over 9 µM in series [5]; over 9 µM in [6]. In addition, the Drug metabolism entry in series [4] is listed as “metabolite_detected”.

Take `Nc1ncnc2c1c(-c1cccc(OCCOC3CCCC3)c1)cn2[C@H]1C[C@@H](CN2CCC2)C1`: the IC50 in series [7] came out at 490 nM.

Consider `CC1(C)CC[C@H](COc2cccc(-c3cn([C@H]4C[C@@H](CN5CCC5)C4)c4ncnc(N)c34)c2)O1`, for which 60 nM corresponded to half-maximal inhibition in series [7] (IC50). Compared with the last compound, the IC50 is about 8.2-fold lower.

Regarding `CCCOCCOc1cccc(-c2cn([C@H]3C[C@@H](CN4CCC4)C3)c3ncnc(N)c23)c1`, inhibition in series [7] was half-maximal at 310 nM (IC50).

In series [7], `CC(C)CCOCCOc1cccc(-c2cn([C@H]3C[C@@H](CN4CCC4)C3)c3ncnc(N)c23)c1` gave an IC50 of 370 nM.

On to `Nc1ncnc2c1c(-c1cccc(OC[C@H]3CCCCO3)c1)cn2[C@H]1C[C@@H](CN2CCC2)C1`, for which the Drug metabolism result in series [4] is recorded as “metabolite_notdetected”. The compound also displayed an IC50 in series [7] of 80 nM.

`CC(C)OCCOc1cccc(-c2cn([C@H]3C[C@@H](CN4CCC4)C3)c3ncnc(N)c23)c1` came in with an IC50 in series [7] of 260 nM.

As for `Nc1ncnc2c1c(-c1cccc(OCC3CCCC3)c1)cn2[C@H]1C[C@@H](CN2CCC2)C1`, in series [7], the 50% inhibitory concentration (IC50) stood at 840 nM.

Turning to `CC1(C)CC[C@@H](COc2cccc(-c3cn([C@H]4C[C@@H](CN5CCC5)C4)c4ncnc(N)c34)c2)O1`, the Activity entry in series [8], in series [15] and in series [17] was “Not Active” throughout. Moreover, the IC50 was 7.4 µM in series [9]; over 10 µM in series [11]; over 10 µM in series [1]; over 10 µM in [3]; 690 nM in [12]; over 9 µM in series [5]. Also, the IC50 in series [13] is 970 nM; in [7], 9 nM; in series [16] it was 100 nM; in series [6], over 9 µM. Further, in series [10], the solubility result was “soluble”. Further, the permeability entry in series [14] is listed as “permeable”.

`CC(C)(C)OCCOc1cccc(-c2cn([C@H]3C[C@@H](CN4CCC4)C3)c3ncnc(N)c23)c1` returned an IC50 in series [7] of 160 nM.

Take `CCOCCOc1cccc(-c2cn([C@H]3C[C@@H](CN4CCC4)C3)c3ncnc(N)c23)c1`: the half-inhibitory concentration (IC50) in series [7] was 630 nM.

In the case of `Nc1ncnc2c1c(-c1cccc(OC[C@H]3CCCO3)c1)cn2[C@H]1C[C@@H](CN2CCC2)C1`, the IC50 in series [7] stood at 110 nM. This IC50 is about 5.7-fold lower than that of the compound before.

In the case of `Nc1ncnc2c1c(-c1cccc(O)c1)cn2[C@H]1C[C@@H](CN2CCC2)C1`, the Drug metabolism entry in [18] is recorded as “metabolite_detected”.

`Nc1ncnc2c1c(-c1cccc(OCC3CCC3)c1)cn2[C@H]1C[C@@H](CN2CCC2)C1`: half-maximal inhibition in series [7] (IC50) was put at 1900 nM.

`Nc1ncnc2c1c(-c1cccc(OCC3CCCCC3)c1)cn2[C@H]1C[C@@H](CN2CCC2)C1` registered an IC50 in series [7] of 550 nM.

In series [7], `Nc1ncnc2c1c(-c1cccc(OCCO)c1)cn2[C@H]1C[C@@H](CN2CCC2)C1` gave an IC50 of 7900 nM.

Turning to `COCCOc1cccc(-c2cn([C@H]3C[C@@H](CN4CCC4)C3)c3ncnc(N)c23)c1`, the 50% inhibitory concentration (IC50) in series [7] was 2000 nM.

`Nc1ncnc2c1c(-c1cccc(OC[C@@H]3CCCO3)c1)cn2[C@H]1C[C@@H](CN2CCC2)C1`: the IC50 is over 10 µM in series [1]; 3600 nM in series [2]; over 10 µM in [3]; over 9 µM in series [5]; 80 nM in [7]; over 9 µM in series [6].

`Nc1ncnc2c1c(-c1cccc(OC[C@@H]3CCCCO3)c1)cn2[C@H]1C[C@@H](CN2CCC2)C1` had an IC50 in series [7] of 130 nM.

In [7], `CC(Oc1cccc(-c2cn([C@H]3C[C@@H](CN4CCC4)C3)c3ncnc(N)c23)c1)c1ccccc1` (mixture of isomers) came in with an IC50 of 3700 nM. Against the preceding compound, the IC50 is about 28-fold higher.
